One may read the IC50 as the midpoint of a concentration-inhibition curve.

Each structure is given as a SMILES string. Bounds are passed on as bounds.

The target in the experiment is T1, full length AKT E17K (Homo sapiens, UniProt P31749, E17K).
T1 construct: host or cells: HEK-293 (ATCC CRL-1573)
T1 sequence (P31749 whole entry E17K): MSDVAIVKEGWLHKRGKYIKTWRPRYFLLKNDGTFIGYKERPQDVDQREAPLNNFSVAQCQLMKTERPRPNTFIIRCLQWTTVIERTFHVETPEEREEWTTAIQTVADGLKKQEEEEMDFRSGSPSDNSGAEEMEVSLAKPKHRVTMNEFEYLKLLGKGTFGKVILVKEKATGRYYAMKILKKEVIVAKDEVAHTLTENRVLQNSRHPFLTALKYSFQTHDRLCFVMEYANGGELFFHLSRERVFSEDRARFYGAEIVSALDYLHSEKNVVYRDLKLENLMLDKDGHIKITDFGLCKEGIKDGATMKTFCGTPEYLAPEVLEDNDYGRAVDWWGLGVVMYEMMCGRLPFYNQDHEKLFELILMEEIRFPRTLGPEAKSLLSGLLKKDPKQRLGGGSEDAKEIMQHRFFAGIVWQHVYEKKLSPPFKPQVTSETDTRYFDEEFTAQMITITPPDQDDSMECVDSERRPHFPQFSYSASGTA
Briefly: NanoBRET Target Engagement (TE) Assay. The class given is cell-based. Particulars: competitive displacement of tracer in cells, read-out: AKT1 E17K IC50. An outline of the steps: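 Compound and tracer incubated 2 h before luminescence at donor 450 nm and acceptor 600 nm, with extracellular signal inhibited. EC50 by sigmoidal variable-slope regression.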
For the molecule `N#Cc1nccc(NC2CCN(Cc3ccc(-n4c(-c5cccnc5N)nc5ccc(-c6ccc[nH]c6=O)nc54)cc3)CC2)n1` [Example 538, 4-((1-(4-(2-(2-Aminopyridin-3-yl)-5-(2-hydroxypyridin-3-yl)-3H-imidazo[4,5-b]pyridin-3-yl)benzyl)piperidin-4-yl)amino)pyrimidine-2-carbonitrile], the IC50 lay within 15 to 60 nM.
The same measure for `Cc1nn(C)cc1-c1ccc2nc(-c3cccnc3N)n(-c3ccc(CN4CCC(Nc5ccnc(C#N)n5)CC4)cc3)c2n1` [Example 539, 4-((1-(4-(2-(2-Aminopyridin-3-yl)-5-(1,3-dimethyl-1H-pyrazol-4-yl)-3H-imidazo[4,5-b]pyridin-3-yl)benzyl)piperidin-4-yl)amino)pyrimidine-2-carbonitrile]: under 15 nM; for `N#Cc1nccc(NC2CCN(Cc3ccc(-n4c(-c5cccnc5N)nc5cnccc54)cc3)CC2)n1` [Example 540, 4-((1-(4-(2-(2-Aminopyridin-3-yl)-1H-imidazo[4,5-c]pyridin-1-yl)benzyl)piperidin-4-yl)amino)pyrimidine-2-carbonitrile]: 60 to 600 nM; for `CN(c1ccnc(C#N)n1)C1CCN(Cc2ccc(-n3c(-c4cccnc4N)nc4ccc(-c5ccc(F)cc5)nc43)cc2)CC1` [Example 541, 4-((1-(4-(2-(2-aminopyridin-3-yl)-5-(4-fluorophenyl)-3H-imidazo[4,5-b]pyridin-3-yl)benzyl)piperidin-4-yl)(methyl)amino)pyrimidine-2-carbonitrile]: under 15 nM.
In the case of `N#Cc1nccc(NC2CCN(Cc3ccc(-n4c(-c5cccnc5N)nc5ccc(-c6ccc(OC(F)F)nc6)nc54)cc3)CC2)n1` [Example 542, 4-((1-(4-(2-(2-Aminopyridin-3-yl)-5-(6-(difluoromethoxy)pyridin-3-yl)-3H-imidazo[4,5-b]pyridin-3-yl)benzyl)piperidin-4-yl)amino)pyrimidine-2-carbonitrile] it was under 15 nM; in that of `N#Cc1nccc(NC2CCN(Cc3ccc(-n4c(-c5cccnc5N)nc5ccc(-c6ccnc(OC(F)F)c6)nc54)cc3)CC2)n1` [Example 543, 4-((1-(4-(2-(2-aminopyridin-3-yl)-5-(2-(difluoromethoxy)pyridin-4-yl)-3H-imidazo[4,5-b]pyridin-3-yl)benzyl)piperidin-4-yl)amino)pyrimidine-2-carbonitrile], 15 to 60 nM.
The same measure for `N#Cc1nccc(NC2CCN(Cc3ccc(-n4c(-c5cccnc5N)nc5ccc(-c6ccc(F)cc6O)nc54)cc3)CC2)n1` [Example 544, 4-((1-(4-(2-(2-Aminopyridin-3-yl)-5-(4-fluoro-2-hydroxyphenyl)-3H-imidazo[4,5-b]pyridin-3-yl)benzyl)piperidin-4-yl)amino)pyrimidine-2-carbonitrile]: under 15 nM; for `N#Cc1nccc(NC2CCN(Cc3ccc(-n4c(-c5cccnc5N)nc5ccc(-c6ccc(F)c(O)c6)nc54)cc3)CC2)n1` [Example 545, 4-((1-(4-(2-(2-Aminopyridin-3-yl)-5-(4-fluoro-3-hydroxyphenyl)-3H-imidazo[4,5-b]pyridin-3-yl)benzyl)piperidin-4-yl)amino)pyrimidine-2-carbonitrile]: under 15 nM; for `Cn1cncc1-c1ccc2nc(-c3cccnc3N)n(-c3ccc(CN4CCC(Nc5ccnc(C#N)n5)CC4)cc3)c2n1` [Example 546, 4-((1-(4-(2-(2-Aminopyridin-3-yl)-5-(1-methyl-1H-imidazol-5-yl)-3H-imidazo[4,5-b]pyridin-3-yl)benzyl)piperidin-4-yl)amino)pyrimidine-2-carbonitrile]: under 15 nM.
As to `Cc1ccc(-c2ccc3nc(-c4cccnc4N)n(-c4ccc(CN5CCC(Nc6ccnc(C#N)n6)CC5)cc4)c3n2)nc1` [Example 547, 4-((1-(4-(2-(2-Aminopyridin-3-yl)-5-(5-methylpyridin-2-yl)-3H-imidazo[4,5-b]pyridin-3-yl)benzyl)piperidin-4-yl)amino)pyrimidine-2-carbonitrile], the IC50 was under 15 nM.
Consider `N#Cc1ccnc(-c2ccc3nc(-c4cccnc4N)n(-c4ccc(CN5CCC(Nc6ccnc(C#N)n6)CC5)cc4)c3n2)c1` [Example 548, 4-((1-(4-(2-(2-Aminopyridin-3-yl)-5-(4-cyanopyridin-2-yl)-3H-imidazo[4,5-b]pyridin-3-yl)benzyl)piperidin-4-yl)amino)pyrimidine-2-carbonitrile], for which the IC50 was under 15 nM.
In the case of `N#Cc1nccc(NC2CCN(Cc3ccc(-n4c(-c5cccnc5N)nc5cc(Br)c(-c6ccc(F)cc6)nc54)cc3)CC2)n1` [Example 549, 4-((1-(4-(2-(2-Aminopyridin-3-yl)-6-bromo-5-(4-fluorophenyl)-3H-imidazo[4,5-b]pyridin-3-yl)benzyl)piperidin-4-yl)amino)pyrimidine-2-carbonitrile] it was under 15 nM; in that of `Cc1nc2c(cc1C#N)nc(-c1cccnc1N)n2-c1ccc(CN2CCC(Nc3ccnc(C#N)n3)CC2)cc1` [Example 550, 2-(2-Aminopyridin-3-yl)-3-(4-((4-((2-cyanopyrimidin-4-yl)amino)piperidin-1-yl)methyl)phenyl)-5-methyl-3H-imidazo[4,5-b]pyridine-6-carbonitrile], under 15 nM; in that of `N#Cc1nccc(NC2CCN(Cc3ccc(-n4c(-c5cccnc5N)nc5ccc(-c6ccncc6F)nc54)cc3)CC2)n1` [Example 551, 4-((1-(4-(2-(2-aminopyridin-3-yl)-5-(3-fluoropyridin-4-yl)-3H-imidazo[4,5-b]pyridin-3-yl)benzyl)piperidin-4-yl)amino)pyrimidine-2-carbonitrile], under 15 nM.
The same measure for `COc1ccc(-c2ccc3nc(-c4cccnc4N)n(-c4ccc(CN5CCC(Nc6ccnc(C#N)n6)CC5)cc4)c3n2)nc1` [Example 552, 4-((1-(4-(2-(2-Aminopyridin-3-yl)-5-(5-methoxypyridin-2-yl)-3H-imidazo[4,5-b]pyridin-3-yl)benzyl)piperidin-4-yl)amino)pyrimidine-2-carbonitrile]: under 15 nM.
The same measure for `N#Cc1cc2c(cn1)nc(-c1cccnc1N)n2-c1ccc(CN2CCC(Nc3ccnc(C#N)n3)CC2)cc1` [Example 553, 2-(2-Aminopyridin-3-yl)-1-(4-((4-((2-cyanopyrimidin-4-yl)amino)piperidin-1-yl)methyl)phenyl)-1H-imidazo[4,5-c]pyridine-6-carbonitrile]: 15 to 60 nM; for `Cc1ncoc1-c1ccc2nc(-c3cccnc3N)n(-c3ccc(CN4CCC(Nc5ccnc(C#N)n5)CC4)cc3)c2n1` [Example 554, 4-((1-(4-(2-(2-Aminopyridin-3-yl)-5-(4-methyloxazol-5-yl)-3H-imidazo[4,5-b]pyridin-3-yl)benzyl)piperidin-4-yl)amino)pyrimidine-2-carbonitrile]: under 15 nM; for `N#Cc1nccc(NC2CCN(Cc3ccc(-n4c(-c5cccnc5N)nc5ccc(-c6cnn(C7CC7)c6)nc54)cc3)CC2)n1` [Example 555, 4-((1-(4-(2-(2-Aminopyridin-3-yl)-5-(1-cyclopropyl-1H-pyrazol-4-yl)-3H-imidazo[4,5-b]pyridin-3-yl)benzyl)piperidin-4-yl)amino)pyrimidine-2-carbonitrile]: under 15 nM.
On to `N#Cc1nccc(NC2CCN(Cc3ccc(-n4c(-c5cccnc5N)nc5nc(C#N)c(C#N)nc54)cc3)CC2)n1` [Example 556, 2-(2-Aminopyridin-3-yl)-1-(4-((4-((2-cyanopyrimidin-4-yl)amino)piperidin-1-yl)methyl)phenyl)-1H-imidazo[4,5-b]pyrazine-5,6-dicarbonitrile], for which the IC50 lay within 600 to 10000 nM.

For the origin of these results see patent publication US12209087B2, “AKT1 modulators” (Alterome Therapeutics, Inc., priority 2022, dated 2025).
